Consider twelve compounds from ChEMBL document CHEMBL1201862, “PubChem BioAssay data set” (2004).

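Dose response: 5 concentrations. Exposure: 48 h. Format: 96-well plates. Endpoint: linear interpolation; highest concentration if not reached. At the GI50, growth is halved.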 Activity calls are given as the source filed them. Rule as the data show it: active = GI50 up to about 1.1 µM and inactive = higher.

Some test systems named below: SNB-75; UACC-257; CCRF-CEM; HCT-116; KM12; HT-29; K562; 786-0; NCI-H460; SN12C; MOLT-4; M19-MEL; SR; OVCAR-5; IGROV-1; HCT-15; UACC-62.
Holding throughout (assay): NCI-60 cell line screen, 48 h

Regarding `NC12CC3CC(C1)CC(C(=O)O)(C3)C2`, the GI50 with SNB-75, in the test with UACC-257, in the test on CCRF-CEM, in the test on HCT-116, with KM12 and in the test on HT-29 was > 100 µM (inactive) throughout. The GI50 with K562 was 2.73 µM (inactive); with 786-0, > 100 µM (inactive); in the test on NCI-H460, > 100 µM (inactive); in the test on SN12C, > 100 µM (inactive); in the test with MOLT-4, > 100 µM (inactive); in the test with M19-MEL, > 100 µM (inactive). The GI50 with SR is > 100 µM (inactive); in the test on OVCAR-5, > 100 µM (inactive); in the test on IGROV-1, > 100 µM (inactive); in the test on HCT-15, > 100 µM; with UACC-62, > 100 µM (inactive).

As for `O=C(NO)C(=O)Nc1cc(Cl)ccc1Cl`, the GI50 was > 100 µM (inactive) with SNB-75; > 100 µM (inactive) in the test on UACC-257; 51.1 µM (inactive) in the test with CCRF-CEM; > 100 µM (inactive) in the test with HCT-116; > 100 µM (inactive) with KM12; > 100 µM (inactive) in the test on HT-29. Further, the GI50 was 63.8 µM (inactive) with K562; > 100 µM (inactive) in the test with 786-0; > 100 µM (inactive) in the test with NCI-H460; > 100 µM (inactive) with SN12C; 83.6 µM (inactive) in the test on MOLT-4; > 100 µM (inactive) with M19-MEL. In addition, the GI50 is 93.5 µM (inactive) with SR; > 100 µM (inactive) in the test on OVCAR-5; 20.1 µM (inactive) with IGROV-1; > 100 µM in the test on HCT-15; > 100 µM (inactive) in the test on UACC-62.

As to `O=C1NC2(O)c3ccccc3C(=O)C2(O)N1c1ccccc1` (stereo not given), the GI50 in the test on SNB-75, in the test on UACC-257, in the test with CCRF-CEM, in the test with HCT-116, with KM12 and in the test with HT-29 was > 100 µM (inactive) each time. The GI50 with K562, in the test on 786-0, in the test on NCI-H460, with MOLT-4, in the test on M19-MEL and with SR was > 100 µM (inactive) in each case. Also, the GI50 in the test on OVCAR-5 was > 100 µM (inactive); with IGROV-1, > 100 µM (inactive); with HCT-15 it was > 100 µM; with UACC-62, > 100 µM (inactive).

As for `Cc1cc(C(C)C)cc(=O)c(O)c1`, the GI50 in the test on SNB-75, with UACC-257, with CCRF-CEM, in the test on HCT-116, with KM12 and with HT-29 was > 100 µM (inactive) each time. In addition, the GI50 in the test on 786-0, with NCI-H460, in the test on SN12C, in the test on MOLT-4, in the test with M19-MEL and in the test with SR was > 100 µM (inactive) each time. Further, the GI50 is > 100 µM (inactive) in the test with OVCAR-5, > 100 µM (inactive) with IGROV-1, > 100 µM with HCT-15 and > 100 µM (inactive) in the test on UACC-62.

As to `Cc1nc(-n2nc(-c3ccccc3)cc2-c2ccccc2)sc1C(=O)/C=C/c1ccc(/C=C/C(=O)c2sc(-n3nc(-c4ccccc4)cc3-c3ccccc3)nc2C)cc1`, the GI50 in the test with UACC-257 was 21 µM (inactive); with CCRF-CEM it was 30.6 µM (inactive); in the test on HCT-116, 19.8 µM (inactive); in the test on KM12 it was 18.8 µM (inactive); in the test with HT-29, 21.6 µM (inactive); in the test on K562 it was 30.3 µM (inactive). Further, the GI50 in the test on 786-0 is 18.6 µM (inactive); in the test with NCI-H460 it was 29 µM (inactive); in the test with SN12C, 19.6 µM (inactive); in the test on MOLT-4, 25.1 µM (inactive); in the test with M19-MEL, 25.9 µM (inactive); in the test on SR, 27.2 µM (inactive). Besides, the GI50 was 25.5 µM (inactive) with OVCAR-5, 15.2 µM (inactive) in the test with IGROV-1, 34.3 µM in the test with HCT-15 and > 10 µM (inactive) in the test with UACC-62.

For the compound `O=C(c1nc2ccccc2nc1O)C(O)c1ccco1` (stereo not given), the GI50 in the test on SNB-75 is 45.8 µM (inactive); with UACC-257 it was > 100 µM (inactive); in the test with CCRF-CEM, > 100 µM (inactive); in the test with HCT-116 it was > 100 µM (inactive); in the test with KM12, 76.4 µM (inactive); in the test on HT-29, > 100 µM (inactive). The GI50 in the test on K562, in the test with 786-0, with NCI-H460, in the test with SN12C, in the test with MOLT-4 and with M19-MEL was > 100 µM (inactive) in each case. In addition, the GI50 is > 100 µM (inactive) in the test on OVCAR-5, > 100 µM (inactive) in the test with IGROV-1, 51.8 µM in the test on HCT-15 and 61.5 µM (inactive) with UACC-62.

Turning to `O=C(Nc1cccc2c1C(=O)c1c(NC(=O)c3ccccc3)ccc(Nc3cccc4c3C(=O)c3ccccc3C4=O)c1C2=O)c1ccccc1`, the GI50 in the test with SNB-75 is 70.3 µM (inactive); in the test on UACC-257, > 100 µM (inactive); in the test with CCRF-CEM, > 100 µM (inactive); in the test on HCT-116, > 100 µM (inactive); with KM12, > 100 µM (inactive); with K562 it was > 100 µM (inactive). The GI50 in the test on 786-0, in the test with NCI-H460, with SN12C, in the test with MOLT-4, in the test with M19-MEL and in the test on SR was > 100 µM (inactive) each time. For the same compound, the GI50 in the test on IGROV-1 is > 100 µM (inactive); in the test on HCT-15 it was > 100 µM; in the test on UACC-62 it was > 100 µM (inactive).

In the case of `CCSC(=O)C1(C)OC2CCCCC2C1=O` (stereo not given), the GI50 in the test with SNB-75, in the test with UACC-257, in the test with CCRF-CEM, in the test with HCT-116, with KM12 and in the test with K562 was > 100 µM (inactive) throughout. The GI50 in the test with 786-0, in the test with NCI-H460, in the test on SN12C, with MOLT-4, in the test on M19-MEL and in the test on SR was > 100 µM (inactive) throughout. For the same compound, the GI50 with IGROV-1 was > 100 µM (inactive); with HCT-15 it was > 100 µM; in the test with UACC-62, > 100 µM (inactive).

With `COc1cc([C@@H]2c3cc4c(cc3[C@@H](OC(=O)c3ccc(N)cc3)C3COC(=O)[C@@H]32)OCO4)cc(OC)c1O` (stereo not given in full), the GI50 with SNB-75 is 3.21 µM (inactive); in the test on UACC-257, 9.14 µM (inactive); in the test with CCRF-CEM, 6.18 µM (inactive); in the test with HCT-116 it was 4.45 µM (inactive); with KM12, 11.9 µM (inactive); in the test on HT-29 it was 3.21 µM (inactive). Further, the GI50 in the test with K562 was 5.18 µM (inactive); in the test on 786-0 it was 7.08 µM (inactive); with NCI-H460, 3.73 µM (inactive); in the test with SN12C it was 4.21 µM (inactive); in the test on MOLT-4, 3.1 µM (inactive); in the test with M19-MEL it was 4.99 µM (inactive). Further, the GI50 is 41.5 µM (inactive) with OVCAR-5, 2.8 µM (inactive) in the test on IGROV-1, 12.8 µM in the test with HCT-15 and 4.91 µM (inactive) with UACC-62.

For `COc1ccc(CN2C(=O)C(Cc3cc(OC)c(OC)c(C)c3OC)N(C(=O)OC(C)C)C(=O)/C2=C/c2cc(OC)c(OC)c(C)c2OC)cc1` (stereo not given), the GI50 with SNB-75 was 83.8 µM (inactive); with UACC-257 it was 48 µM (inactive); with CCRF-CEM it was 59.6 µM (inactive); with HCT-116 it was 66.2 µM (inactive); with KM12 it was > 100 µM (inactive); in the test with HT-29, > 100 µM (inactive). In addition, the GI50 was 41 µM (inactive) in the test on K562; > 100 µM (inactive) with 786-0; 18.4 µM (inactive) with NCI-H460; > 100 µM (inactive) in the test on SN12C; 5.94 µM (inactive) in the test on MOLT-4; > 100 µM (inactive) with M19-MEL. Also, the GI50 with SR is 15.2 µM (inactive); with OVCAR-5, > 100 µM (inactive); with IGROV-1, > 100 µM (inactive); in the test on UACC-62 it was > 100 µM (inactive).

Regarding `O=C1CCC2(CCC(=O)NC2=O)C(=O)N1`, the GI50 in the test with UACC-257, in the test on CCRF-CEM, in the test on HCT-116, with KM12, with HT-29 and in the test on K562 was > 100 µM (inactive) in each case. Moreover, the GI50 in the test on 786-0, in the test on NCI-H460, with SN12C, in the test on MOLT-4, in the test on M19-MEL and with SR was > 100 µM (inactive) in each case. The GI50 with IGROV-1 is > 100 µM (inactive); with HCT-15, > 100 µM.

With `N#CCCN(c1ccc(-c2nnc(NC(=O)CNNC(=O)CC(=O)Nc3ccccc3)s2)cc1)S(=O)(=O)c1ccccc1`, the GI50 was 29 µM (inactive) in the test on SNB-75; > 100 µM (inactive) in the test with UACC-257; 90.8 µM (inactive) with CCRF-CEM; 71.1 µM (inactive) with HCT-116; > 100 µM (inactive) with KM12; > 100 µM (inactive) in the test with HT-29. Further, the GI50 in the test with K562 was 49.2 µM (inactive); in the test on 786-0, > 100 µM (inactive); with NCI-H460 it was > 100 µM (inactive); with SN12C it was > 100 µM (inactive); with MOLT-4 it was 45.3 µM (inactive); in the test with M19-MEL, > 100 µM (inactive). Moreover, the GI50 was > 100 µM (inactive) in the test with OVCAR-5, > 100 µM (inactive) with IGROV-1, > 100 µM in the test with HCT-15 and 50.8 µM (inactive) with UACC-62.
